Assay [1] relates to TAOK1.
For assay [2], the target named is CK1g2 (Homo sapiens, UniProt P78368). To be noted: 1 μM; Run 1, Run 2.
Assay [3] has as its target T1, MYLK3 (Homo sapiens, UniProt Q32MK0).
T1 sequence (Q32MK0 1-819): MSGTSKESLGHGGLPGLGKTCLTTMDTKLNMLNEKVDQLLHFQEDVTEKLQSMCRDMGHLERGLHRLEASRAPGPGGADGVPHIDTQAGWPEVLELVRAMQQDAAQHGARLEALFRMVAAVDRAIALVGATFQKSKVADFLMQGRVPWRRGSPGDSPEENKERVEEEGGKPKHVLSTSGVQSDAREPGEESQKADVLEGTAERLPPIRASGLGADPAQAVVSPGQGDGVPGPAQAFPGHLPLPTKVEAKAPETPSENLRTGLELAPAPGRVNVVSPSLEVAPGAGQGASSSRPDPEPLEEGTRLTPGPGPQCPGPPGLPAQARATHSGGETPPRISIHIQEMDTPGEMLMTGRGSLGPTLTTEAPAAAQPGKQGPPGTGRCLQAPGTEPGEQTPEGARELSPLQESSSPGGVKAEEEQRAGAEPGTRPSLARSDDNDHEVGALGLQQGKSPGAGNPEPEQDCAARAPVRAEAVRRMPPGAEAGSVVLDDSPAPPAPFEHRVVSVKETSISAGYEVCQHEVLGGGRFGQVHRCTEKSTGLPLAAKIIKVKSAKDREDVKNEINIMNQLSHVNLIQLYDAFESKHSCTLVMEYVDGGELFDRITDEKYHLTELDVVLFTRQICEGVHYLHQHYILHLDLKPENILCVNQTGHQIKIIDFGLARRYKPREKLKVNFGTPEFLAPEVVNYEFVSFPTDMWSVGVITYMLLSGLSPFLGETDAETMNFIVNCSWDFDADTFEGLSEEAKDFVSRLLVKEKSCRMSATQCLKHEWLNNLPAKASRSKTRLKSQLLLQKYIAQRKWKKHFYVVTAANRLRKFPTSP
To be noted: 1 μM; Run 1, Run 2.

The target in assay [4] is T2, DYRK3 (Homo sapiens, UniProt O43781).
T2 sequence (O43781 1-588): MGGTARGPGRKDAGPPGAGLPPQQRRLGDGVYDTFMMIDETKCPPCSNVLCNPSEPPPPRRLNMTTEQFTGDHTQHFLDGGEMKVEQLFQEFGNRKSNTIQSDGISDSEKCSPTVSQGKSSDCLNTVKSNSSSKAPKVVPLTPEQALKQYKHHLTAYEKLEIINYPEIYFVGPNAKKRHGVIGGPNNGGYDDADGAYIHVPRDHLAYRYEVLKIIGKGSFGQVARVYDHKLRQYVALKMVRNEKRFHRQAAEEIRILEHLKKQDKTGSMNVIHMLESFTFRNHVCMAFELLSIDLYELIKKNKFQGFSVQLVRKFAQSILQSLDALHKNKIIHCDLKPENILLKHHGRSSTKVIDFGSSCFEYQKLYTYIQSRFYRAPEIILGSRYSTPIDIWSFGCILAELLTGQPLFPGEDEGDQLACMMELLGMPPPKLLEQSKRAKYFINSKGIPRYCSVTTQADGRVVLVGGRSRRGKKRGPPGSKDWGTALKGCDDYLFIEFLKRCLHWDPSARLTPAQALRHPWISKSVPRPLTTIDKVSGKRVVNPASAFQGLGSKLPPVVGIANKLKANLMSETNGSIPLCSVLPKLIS
The experiment in a line: biochemical. As to conditions: read-out: % enzyme activity, 1 μM; Run 1, Run 2.

For assay [5], the target named is T3, MASTL (Homo sapiens, UniProt Q96GX5).
T3 sequence (Q96GX5 1-879): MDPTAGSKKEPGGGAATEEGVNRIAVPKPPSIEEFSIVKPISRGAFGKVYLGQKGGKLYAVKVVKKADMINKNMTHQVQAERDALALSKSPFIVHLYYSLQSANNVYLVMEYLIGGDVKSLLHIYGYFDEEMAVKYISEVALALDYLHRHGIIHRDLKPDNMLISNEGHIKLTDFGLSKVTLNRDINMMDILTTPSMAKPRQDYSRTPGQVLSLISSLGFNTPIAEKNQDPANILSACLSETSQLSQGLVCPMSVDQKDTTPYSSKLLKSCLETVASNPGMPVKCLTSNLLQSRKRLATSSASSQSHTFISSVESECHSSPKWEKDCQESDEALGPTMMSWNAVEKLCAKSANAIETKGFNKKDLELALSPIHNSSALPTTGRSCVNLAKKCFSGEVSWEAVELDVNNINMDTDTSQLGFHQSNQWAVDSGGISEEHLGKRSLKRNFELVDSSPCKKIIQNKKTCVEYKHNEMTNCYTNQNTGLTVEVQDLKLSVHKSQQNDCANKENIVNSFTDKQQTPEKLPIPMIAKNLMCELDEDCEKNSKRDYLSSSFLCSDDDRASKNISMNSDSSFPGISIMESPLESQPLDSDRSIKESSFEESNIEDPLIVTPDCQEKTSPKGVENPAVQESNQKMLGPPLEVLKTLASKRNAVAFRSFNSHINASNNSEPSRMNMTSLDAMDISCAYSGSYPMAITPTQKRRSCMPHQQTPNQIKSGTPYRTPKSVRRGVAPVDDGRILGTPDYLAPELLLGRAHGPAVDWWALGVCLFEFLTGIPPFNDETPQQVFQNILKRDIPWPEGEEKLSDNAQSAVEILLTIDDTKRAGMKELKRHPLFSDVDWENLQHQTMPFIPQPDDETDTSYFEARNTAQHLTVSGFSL
The experiment in a line: biochemical. As to conditions: read-out: % enzyme activity, 1 μM; Run 1, Run 2.

Results on two compounds are retold here after article PMC8213057, “Targeting ALK2: An Open Science Approach to Developing Therapeutics for the Treatment of Diffuse Intrinsic Pontine Glioma” (Journal of Medicinal Chemistry, 2020).

“And” between values parts separate entries of the source, which are not always exact repeats. Equal values may be shown once.

CK1g2, sequence (P78368 whole entry): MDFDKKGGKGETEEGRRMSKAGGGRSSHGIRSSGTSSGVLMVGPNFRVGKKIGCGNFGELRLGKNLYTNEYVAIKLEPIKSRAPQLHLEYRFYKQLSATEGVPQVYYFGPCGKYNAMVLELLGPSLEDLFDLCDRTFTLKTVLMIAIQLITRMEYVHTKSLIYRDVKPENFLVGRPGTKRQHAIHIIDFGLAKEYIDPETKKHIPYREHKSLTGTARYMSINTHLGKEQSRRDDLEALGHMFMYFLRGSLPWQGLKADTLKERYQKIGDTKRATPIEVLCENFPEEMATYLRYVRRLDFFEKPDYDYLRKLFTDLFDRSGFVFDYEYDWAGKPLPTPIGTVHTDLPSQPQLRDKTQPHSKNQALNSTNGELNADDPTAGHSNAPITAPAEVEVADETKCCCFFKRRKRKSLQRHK

Take `COc1cc(-c2cncc(-c3ccc(N4CCN(C)CC4)cc3)c2C)cc(F)c1C(N)=O` [Compound 26a, 2-Fluoro-6-methoxy-4-(4-methyl-5-(4-(4-methylpiperazin-1-yl)phenyl)pyridin-3-yl)benzamide]: in assay [1], the % enzyme activity at 1 μM is 60.3% and 60.2%. Moreover, the “% enzyme activity” value in assay [2] was found to be 75.72%; in assay [3] it was 98.90%. The remaining activity at 1 µM in assay [4] was 90.4%; in assay [5], 99.3%.

With `COc1cc(-c2cncc(-c3ccc(N4C[C@@H](C)N(C)[C@@H](C)C4)cc3)c2C)cc(F)c1C(N)=O` [Compound 26c, 2-Fluoro-6-methoxy-4-(4-methyl-5-(4-((3R,5S)-3,4,5-trimethylpiperazin-1-yl)phenyl)pyridin-3-yl)benzamide], in assay [1], the % enzyme activity at 1 μM was 62.2% and 60.6%. Moreover, the “% enzyme activity” value in assay [2] is 85.61%; in assay [3], 99.34%. Further, the results for the remaining activity at 1 µM in assay [4] and in assay [5] were 96% and 102%, respectively.
